Assay results taken from US12685312B2, “Sulfonamide apyrase inhibitors” (Texas Crop Science, Inc., priority 2022, dated 2026).

System: apyrase
Test: Screen for apyrase inhibitors (Method 1, in vitro phosphate-release absorbance assay)
Assay type: biochemical
Conditions: inhibitor conc at 1 mM stock, 1 hr room temperature, absorbance 630 nm; rounded average of two assay results
Procedure, shortened: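 Phosphate-release colorimetric assay (Windsor method) in 60 mM Hepes, 3 mM MgCl2, 3 mM CaCl2, 3 mM ATP, pH 6.5, with compound or DMSO control added. Released phosphate developed with ammonium molybdate and ascorbic acid/TCA, then stopped with citrate/acetic acid.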

Structure (SMILES)	% Inhibition of Apyrase
CC1Cc2ccccc2N1S(=O)(=O)c1cccc(C(=O)Nc2ccc(S(=O)(=O)N(C)C)cc2)c1 (centres unmarked) [I-526, N-(4-(N,N-dimethylsulfamoyl)phenyl)-3-((2-methylindolin-1-yl)sulfonyl)benzamide]	55%
O=C(Nc1cccc(S(=O)(=O)N2CCOCC2)c1)c1cccc(S(=O)(=O)N2CCc3ccccc32)c1 [I-527, 3-(indolin-1-ylsulfonyl)-N-(3-(morpholinosulfonyl)phenyl)benzamide]	55%
CN(c1ccc(F)cc1)S(=O)(=O)c1ccc(Cl)c(C(=O)Nc2ccc(F)c(Cl)c2)c1 [I-528, 2-chloro-N-(3-chloro-4-fluorophenyl)-5-(N-(4-fluorophenyl)-N-methylsulfamoyl)benzamide]	55%
NS(=O)(=O)c1cccc(NC(=O)c2cccc(S(=O)(=O)N3CCc4ccccc43)c2)c1 [I-529, 3-(indolin-1-ylsulfonyl)-N-(3-sulfamoylphenyl)benzamide]	55%
COc1cc(OC)c(NS(=O)(=O)c2cc(C(=O)Nc3ccc(OC(F)(F)F)cc3)ccc2C)cc1Cl [I-530, 3-(N-(5-chloro-2,4-dimethoxyphenyl)sulfamoyl)-4-methyl-N-(4-(trifluoromethoxy)phenyl)benzamide]	55%
O=C(Nc1ccc2c(c1)OC1(CCCC1)O2)c1cccc(S(=O)(=O)Nc2ccc3c(c2)OCO3)c1 [I-531, 3-(N-(benzo[d][1,3]dioxol-5-yl)sulfamoyl)-N-(spiro[benzo[d][1,3]dioxole-2,1′-cyclopentan]-5-yl)benzamide]	55%
N#Cc1cccc(NC(=O)c2cccc(S(=O)(=O)Nc3cc(C(F)(F)F)ccc3Cl)c2)c1 [I-532, 3-(N-(2-chloro-5-(trifluoromethyl)phenyl)sulfamoyl)-N-(3-cyanophenyl)benzamide]	55%
CC1Cc2ccccc2N1C(=O)c1cccc(S(=O)(=O)Nc2ccccc2F)c1 (centres unmarked) [I-533, N-(2-fluorophenyl)-3-(2-methylindoline-1-carbonyl)benzenesulfonamide]	54%
CC1Cc2ccccc2N1S(=O)(=O)c1cccc(C(=O)Nc2ccccc2C(C)(C)C)c1 (centres unmarked) [I-534, N-(2-(tert-butyl)phenyl)-3-((2-methylindolin-1-yl)sulfonyl)benzamide]	54%
O=C(Nc1ccc(-n2cnnn2)cc1)c1cccc(S(=O)(=O)N2CCc3ccccc32)c1 [I-535, N-(4-(1H-tetrazol-1-yl)phenyl)-3-(indolin-1-ylsulfonyl)benzamide]	54%
CC1Cc2ccccc2N1S(=O)(=O)c1cccc(C(=O)Nc2ccc3c(c2)OCCO3)c1 (centres unmarked) [I-536, N-(2,3-dihydrobenzo[b][1,4]dioxin-6-yl)-3-((2-methylindolin-1-yl)sulfonyl)benzamide]	54%
O=C(Nc1cccc(F)c1)c1ccc(Cl)c(S(=O)(=O)N2CCc3ccccc32)c1 [I-537, 4-chloro-N-(3-fluorophenyl)-3-(indolin-1-ylsulfonyl)benzamide]	54%
COc1ccc(S(=O)(=O)N2CCc3ccccc32)cc1C(=O)Nc1ccccc1F [I-538, N-(2-fluorophenyl)-5-(indolin-1-ylsulfonyl)-2-methoxybenzamide]	54%
O=C(Nc1ccc2c(c1)CCC2)c1cccc(S(=O)(=O)N2CCc3ccccc32)c1 [I-539, N-(2,3-dihydro-1H-inden-5-yl)-3-(indolin-1-ylsulfonyl)benzamide]	54%
COc1ccc(N(C)S(=O)(=O)c2cccc(C(=O)N3CCc4ccccc43)c2)cc1 [I-540, 3-(indoline-1-carbonyl)-N-(4-methoxyphenyl)-N-methylbenzenesulfonamide]	54%
CCOc1ccc(NC(=O)c2cccc(S(=O)(=O)Nc3ccc(OCC)cc3)c2)cc1 [I-541, N-(4-ethoxyphenyl)-3-(N-(4-ethoxyphenyl)sulfamoyl)benzamide]	54%
O=C(c1cccc(S(=O)(=O)Nc2cccc(Cl)c2)c1)N1CCc2ccccc21 [I-542, N-(3-chlorophenyl)-3-(indoline-1-carbonyl)benzenesulfonamide]	54%
Cc1ccc(S(=O)(=O)Nc2ccc(F)cc2)cc1C(=O)N1CCc2ccccc21 [I-543, N-(4-fluorophenyl)-3-(indoline-1-carbonyl)-4-methylbenzenesulfonamide]	54%
Cc1ccc(S(=O)(=O)Nc2ccc(F)cc2)cc1C(=O)N1c2ccccc2CC1C (centres unmarked) [I-544, N-(4-fluorophenyl)-4-methyl-3-(2-methylindoline-1-carbonyl)benzenesulfonamide]	54%
COc1ccc(C(=O)N2c3ccccc3CC2C)cc1S(=O)(=O)Nc1ccc(C)cc1 (centres unmarked) [I-545, 2-methoxy-5-(2-methylindoline-1-carbonyl)-N-(p-tolyl)benzenesulfonamide]	53%
COc1ccc(N(C)S(=O)(=O)c2cccc(C(=O)Nc3ccc(OC)c(Cl)c3)c2)cc1 [I-546, N-(3-chloro-4-methoxyphenyl)-3-(N-(4-methoxyphenyl)-N-methylsulfamoyl)benzamide]	53%
Cc1ccc(NC(=O)c2cccc(S(=O)(=O)N3c4ccccc4CC3C)c2)c(C)c1 (centres unmarked) [I-547, N-(2,4-dimethylphenyl)-3-((2-methylindolin-1-yl)sulfonyl)benzamide]	53%
COc1ccc(Cl)cc1NC(=O)c1cccc(S(=O)(=O)N2CCc3ccccc32)c1 [I-548, N-(5-chloro-2-methoxyphenyl)-3-(indolin-1-ylsulfonyl)benzamide]	53%
O=C(Nc1cc(Cl)ccc1N1CCOCC1)c1cccc(S(=O)(=O)N2CCc3ccccc32)c1 [I-549, N-(5-chloro-2-morpholinophenyl)-3-(indolin-1-ylsulfonyl)benzamide]	53%
CN(C)S(=O)(=O)c1cccc(NC(=O)c2cccc(S(=O)(=O)N3CCc4ccccc43)c2)c1 [I-550, N-(3-(N,N-dimethylsulfamoyl)phenyl)-3-(indolin-1-ylsulfonyl)benzamide]	53%

Results, then the compound that gave them:

% Inhibition of Apyrase	Structure (SMILES)
53%	O=C(c1cc(S(=O)(=O)Nc2cccc(Cl)c2)c(Cl)cc1Cl)N1CCCc2ccccc21 [I-551, 2,4-dichloro-N-(3-chlorophenyl)-5-(1,2,3,4-tetrahydroquinoline-1-carbonyl)benzenesulfonamide]
53%	Cc1ccc(NC(=O)c2cccc(S(=O)(=O)N3CCc4ccccc43)c2)c(OCC2CCCO2)c1 (centres unmarked) [I-552, 3-(indolin-1-ylsulfonyl)-N-(4-methyl-2-((tetrahydrofuran-2-yl)methoxy)phenyl)benzamide]
52%	CC(C)n1ncc2cc(NC(=O)c3cccc(S(=O)(=O)Nc4ccc5c(c4)OCO5)c3)cnc21 [I-553, 3-(N-(benzo[d][1,3]dioxol-5-yl)sulfamoyl)-N-(1-isopropyl-1H-pyrazolo[3,4-b]pyridin-5-yl)benzamide]
52%	O=C(Nc1ccc(S(=O)(=O)Nc2ncccn2)cc1)c1cccc(S(=O)(=O)N2CCc3ccccc32)c1 [I-554, 3-(indolin-1-ylsulfonyl)-N-(4-(N-(pyrimidin-2-yl)sulfamoyl)phenyl)benzamide]
52%	Cc1cccc(NC(=O)c2ccc(Cl)c(S(=O)(=O)N3CCc4ccccc43)c2)c1 [I-555, 4-chloro-3-(indolin-1-ylsulfonyl)-N-(m-tolyl)benzamide]
52%	CC1Cc2ccccc2N1S(=O)(=O)c1cccc(C(=O)Nc2cccc(S(=O)(=O)N(C)C)c2)c1 (centres unmarked) [I-556, N-(3-(N,N-dimethylsulfamoyl)phenyl)-3-((2-methylindolin-1-yl)sulfonyl)benzamide]
52%	N#Cc1ccc(NC(=O)c2ccc(Cl)c(S(=O)(=O)N3CCc4ccccc43)c2)cc1 [I-557, 4-chloro-N-(4-cyanophenyl)-3-(indolin-1-ylsulfonyl)benzamide]
52%	Cc1ccc(N(C)S(=O)(=O)c2cccc(C(=O)N3CCc4ccccc43)c2)cc1 [I-558, 3-(indoline-1-carbonyl)-N-methyl-N-(p-tolyl)benzenesulfonamide]
52%	O=C(c1cc(S(=O)(=O)Nc2ccc(Cl)cc2)ccc1Cl)N1CCCc2ccccc21 [I-559, 4-chloro-N-(4-chlorophenyl)-3-(1,2,3,4-tetrahydroquinoline-1-carbonyl)benzenesulfonamide]
52%	Cc1cccc(NS(=O)(=O)c2cc(C(=O)Nc3cccc(C#N)c3)c(Cl)cc2Cl)c1 [I-560, 2,4-dichloro-N-(3-cyanophenyl)-5-(N-(m-tolyl)sulfamoyl)benzamide]
51%	COc1ccc2c(c1)CCCN2C(=O)c1cccc(S(=O)(=O)Nc2ccccc2F)c1 [I-561, N-(2-fluorophenyl)-3-(6-methoxy-1,2,3,4-tetrahydroquinoline-1-carbonyl)benzenesulfonamide]
51%	O=C(Nc1ccc2c(c1)OCO2)c1ccc(Cl)c(S(=O)(=O)N2CCc3ccccc32)c1 [I-562, N-(benzo[d][1,3]dioxol-5-yl)-4-chloro-3-(indolin-1-ylsulfonyl)benzamide]
51%	COc1ccc(N(C)S(=O)(=O)c2cccc(C(=O)Nc3ccc4c(c3)OCCO4)c2)cc1 [I-563, N-(2,3-dihydrobenzo[b][1,4]dioxin-6-yl)-3-(N-(4-methoxyphenyl)-N-methylsulfamoyl)benzamide]
51%	CCOc1ccc(N(C)S(=O)(=O)c2ccc(C)c(C(=O)N3c4ccccc4CC3C)c2)cc1 (centres unmarked) [I-564, N-(4-ethoxyphenyl)-N,4-dimethyl-3-(2-methylindoline-1-carbonyl)benzenesulfonamide]
51%	O=C(Nc1ccc2c(c1)OCCCO2)c1ccc(Cl)c(S(=O)(=O)N2CCc3ccccc32)c1 [I-565, 4-chloro-N-(3,4-dihydro-2H-benzo[b][1,4]dioxepin-7-yl)-3-(indolin-1-ylsulfonyl)benzamide]
51%	CCc1ccccc1NC(=O)c1cccc(S(=O)(=O)N2CCc3ccccc32)c1 [I-566, N-(2-ethylphenyl)-3-(indolin-1-ylsulfonyl)benzamide]
